Data on 20 molecules can be found in patent US8399676B2, “Piperidine derivatives” (Hoffman-La Roche Inc., priority 2009, dated 2013).

Structures can show the parent of a compound that is named as a salt.

In general, IC50 refers to the concentration at which inhibition is half-maximal.

This assay deals with T1, human HSL (Homo sapiens, UniProt Q05469).
T1 construct: generate a full length human HSL ORF with a 3′-His6 tag; His6 (C); made in house; host or cells: High 5 insect cells (baculovirus, pFast-BAC)
T1 sequence (Q05469 1-1076): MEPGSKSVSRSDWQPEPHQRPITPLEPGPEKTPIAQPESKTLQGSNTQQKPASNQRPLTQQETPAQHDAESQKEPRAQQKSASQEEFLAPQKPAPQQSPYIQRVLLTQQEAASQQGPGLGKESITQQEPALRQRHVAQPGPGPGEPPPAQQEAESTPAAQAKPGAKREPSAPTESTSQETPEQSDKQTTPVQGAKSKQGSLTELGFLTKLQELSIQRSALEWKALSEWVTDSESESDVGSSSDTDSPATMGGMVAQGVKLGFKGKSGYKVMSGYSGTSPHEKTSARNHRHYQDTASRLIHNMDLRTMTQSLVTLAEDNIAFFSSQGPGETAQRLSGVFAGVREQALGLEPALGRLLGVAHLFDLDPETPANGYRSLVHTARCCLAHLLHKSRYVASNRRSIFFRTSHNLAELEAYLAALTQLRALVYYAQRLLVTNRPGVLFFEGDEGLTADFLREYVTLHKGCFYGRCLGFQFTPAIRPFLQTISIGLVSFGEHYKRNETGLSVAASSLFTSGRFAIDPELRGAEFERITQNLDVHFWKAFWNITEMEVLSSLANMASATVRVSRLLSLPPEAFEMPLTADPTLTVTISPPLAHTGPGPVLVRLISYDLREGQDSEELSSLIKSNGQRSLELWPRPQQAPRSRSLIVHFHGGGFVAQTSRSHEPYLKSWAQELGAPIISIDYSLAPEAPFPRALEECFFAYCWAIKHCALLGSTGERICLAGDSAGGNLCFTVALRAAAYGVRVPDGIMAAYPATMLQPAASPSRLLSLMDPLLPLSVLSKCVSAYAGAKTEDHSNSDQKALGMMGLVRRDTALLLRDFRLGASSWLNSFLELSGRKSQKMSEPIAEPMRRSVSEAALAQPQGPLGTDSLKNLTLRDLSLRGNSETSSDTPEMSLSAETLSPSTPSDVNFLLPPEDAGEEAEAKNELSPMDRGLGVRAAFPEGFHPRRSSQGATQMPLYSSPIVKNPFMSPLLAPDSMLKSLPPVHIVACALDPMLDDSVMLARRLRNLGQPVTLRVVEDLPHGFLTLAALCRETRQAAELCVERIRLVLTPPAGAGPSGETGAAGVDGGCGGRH
Put plainly: Human Hormone-Sensitive Lipase (HSL) enzyme inhibition assay (colorimetric, DMPT substrate). The assay is classed as biochemical. The settings on record: read-out: HSL hum IC50. The procedure: Production of Human Full Length Hormone Sensitive Lipase-His^6
1) Cloning: cDNA was prepared from commercial human brain polyA+ RNA and used as a template in overlapping PCR to generate a full length human HSL ORF with a 3′-His6 tag. This full length insert was cloned into the pFast-BAC vector and the DNA-sequence of several single clones was verified. DNA from a correct full length clone with the 3′His6 tag was used to transform the E. coli strain DH10BAC. Resulting bacmid DNA was used to generate a titered baculovirus stock for protein generation. The sequence of the encoded HSL conforms to Swissprot entry Q05469, with the additional C-terminal His6-tag.
2) Protein purification: Culture: 5.5 L, High 5 cells expressing human full length HSL-His^6, 48 hr., containing 25 μM E-64. Cell count: […], 90% viable.
Cells were thawed. On ice, cells were suspended in Base Buffer containing 10% glycerol, 25 mM Tris-Cl, 300 mM NaCl, 10 mM imidazole, 10 mM 2-mercaptoethanol, 2 μg pepstatin/ml, 2 μg leupeptin/ml, 2 μg antipain/ml, pH 8.0 at 4° C. in a final volume of 475 ml with 3.75×10^7 cells/ml. […] was done at 3×30 sec., Lubrol PX was added to 0.2% final concentration followed by stirring for 15 min. at 4° C. and centrifugation at 25 k×g, 60 min., 4° C. Soluble proteins were mixed with 60 ml of pre-washed and equilibrated Ni-NTA Agarose (Qiagen 30210) followed by tumbling end-over-end, 45 min., 4° C., centrifugation 1000 rpm 5 min and letting resin settle 5 min. Supernatant was removed, the resin washed in the centrifuge vessel using 5 volumes of Base Buffer containing 0.2% Lubrol PX. Centrifugation was done again, then the supernatant discarded. The resin was poured onto a 0.8 μm membrane in a disposable filter unit (Nalge 450-0080), and washed with 5 volumes of Base Buffer containing 0.2% Lubrol PX. It was then washed with 30 volumes of Base Buffer containing 60 mM imidazole pH 7.5 at 4° C. The protein was eluted with 5 volumes of 25 mM Tris-Cl, 300 mM NaCl, 200 mM imidazole, 10 mM 2-mercaptoethanol, pH 7.5 at 4° C. by tumbling resin with buffer end-over-end, 30 min., 4° C. The resin was captured on a 0.2 μm membrane disposable filter unit (Millipore SCGP U02 RE) and the elute collected in the reservoir. The elute was concentrated using a 30 k MWCO centrifugal filter device (Sartorius Vivascience Vivacell 100, VC1022), to 20 ml. It was then dialyzed overnight at 4° C., two times against 2 L of 10% glycerol, 25 mM Tris-Cl, 300 mM NaCl, 0.2 mM EDTA, 0.2 mM DTT, pH 7.5 at 4° C. The protein was filtered using a 0.22 μm disposable filter unit (Millipore SCGP00525). The protein concentration was calculated from absorbance at 280 nm, using 280=0.67 cm-1 mg-1. Yield was 235 mg, total. The protein was stored at −80° C. Human Hormone-Sensitive Lipase (HSL) enzyme inhibition assay:
HSL enzyme activity was measured by a colorimetric assay using 2,3-dimercapto-1-propanol tributyrate (Aldrich, St. Louis, Mo.) as a substrate. Typically, 1.5 mM 2,3-dimercapto-1-propanol tributyrate (DMPT) in 100 mM MOPS, pH 7.2, 0.2 mg/ml fatty acid-free BSA was prepared by sonication at 4° C. to homogenous suspension. Test compounds (2 mM stock in DMSO) were diluted 3 fold in series in DMSO. Compound solutions were diluted 24 fold in 1.5 mM DMPT containing solution and 18 ul per well was added to 384-well microplates (Corning Costar). Twelve microliters per well of human HSL (15 ug/ml) was added and the reaction mixture was incubated at 37° C. for 20 minutes. Six microliters of 12 mM dithio-bis-(2-nitrobenzoic acid) (DTNB) in DMSO plus 1.2% SDS and 0.6% Triton X-100 were added and the mixture was incubated at room temperature for 15 minutes. Product production was monitored by reading absorbance at 405 nm on an Envision Reader (PerkinElmer Life and Analytical Sciences, Shelton, Conn.).
As to `COc1ccc(OC)c(NC(=O)N2CCC(O)(C(=O)Nc3ccc(C(C)(C)C)cc3)CC2)c1` [Example 49, 4-Hydroxy-piperidine-1,4-dicarboxylic acid 4-[(4-tert-butyl-phenyl)-amide] 1-[(2,5-dimethoxy-phenyl)-amide]], the IC50 is 660 nM.
The same measure for `Cc1ccccc1S(=O)(=O)N1CCC(N)(C(=O)Nc2ccc(C(C)C)cc2)CC1` [Example 119, 4-Amino-1-(toluene-2-sulfonyl)-piperidine-4-carboxylic acid (4-isopropyl-phenyl)-amide]: 60 nM; for `O=C(c1ccccc1Cl)N1CCC(O)(C(=O)Nc2ccc(OC(F)(F)F)cc2)CC1` [Example 56, 1-(2-Chloro-benzoyl)-4-hydroxy-piperidine-4-carboxylic acid (4-trifluoromethoxy-phenyl)-amide]: 460 nM.
As to `CC(C)c1ccc(NC(=O)C2(O)CCN(S(=O)(=O)c3ccccc3Cl)CC2)cc1` [Example 7, 1-(2-Chloro-benzenesulfonyl)-4-hydroxy-piperidine-4-carboxylic acid (4-isopropyl-phenyl)-amide], the IC50 worked out at 90 nM.
`CC(C)c1ccc(NC(=O)C2(N)CCN(S(=O)(=O)c3ccc(C(C)C)cc3)CC2)cc1` [Example 83, 4-Amino-1-(4-isopropyl-benzenesulfonyl)-piperidine-4-carboxylic acid (4-isopropyl-phenyl)-amide; hydrochloride]: the IC50 came out at 230 nM.
With `CC(C)(C)c1ccc(NC(=O)C2(O)CCN(Cc3ccccc3OC(F)(F)F)CC2)cc1` [Example 48, 4-Hydroxy-1-(2-trifluoromethoxy-benzyl)-piperidine-4-carboxylic acid (4-tert-butyl-phenyl)-amide], the IC50 turned out to be 110 nM.
Regarding `CCCc1ccc(NC(=O)C2(N)CCN(S(=O)(=O)c3ccccc3Cl)CC2)cc1` [Example 98, 4-Amino-1-(2-chloro-benzenesulfonyl)-piperidine-4-carboxylic acid (4-propyl-phenyl)-amide], the IC50 turned out to be 70 nM.
Regarding `CN(C(=O)C1(O)CCN(S(=O)(=O)c2ccccc2F)CC1)c1ccc(OC(F)(F)F)cc1` [Example 70, 1-(2-Fluoro-benzenesulfonyl)-4-hydroxy-piperidine-4-carboxylic acid methyl-(4-trifluoromethoxy-phenyl)-amide], the IC50 came out at 90 nM.
Regarding `CC(C)(C)c1ccc(NC(=O)C2(O)CCN(Cc3ccccc3Cl)CC2)cc1` [Example 44], the IC50 came to 80 nM.
The value for `CCc1ccc(NC(=O)C2(N)CCN(S(=O)(=O)c3c(Cl)cccc3Cl)CC2)cc1` [Example 150, 4-Amino-1-(2,6-dichloro-benzenesulfonyl)-piperidine-4-carboxylic acid (4-ethyl-phenyl)-amide] was 240 nM; that for `CCc1ccc(NC(=O)C2(N)CCN(C(=O)OCc3ccccc3)CC2)cc1` [Example 132, 4-Amino-4-(4-ethyl-phenylcarbamoyl)-piperidine-1-carboxylic acid benzyl ester] was 460 nM; that for `CC(C)c1ccc(NC(=O)C2(N)CCN(Cc3cccc(F)c3)CC2)cc1` [Example 111, 4-Amino-1-(3-fluoro-benzyl)-piperidine-4-carboxylic acid (4-isopropyl-phenyl)-amide; hydrochloride] was 240 nM.
The value for `CC(C)c1ccc(NC(=O)C2(N)CCN(C(=O)c3ccc(C(F)(F)F)cc3)CC2)cc1` [Example 126, 4-Amino-1-(4-trifluoromethyl-benzoyl)-piperidine-4-carboxylic acid (4-isopropyl-phenyl)-amide] was 250 nM; that for `Cc1ccc(S(=O)(=O)N2CCC(O)(C(=O)Nc3ccc(C(C)(C)C)cc3)CC2)cc1` [Example 16, 4-Hydroxy-1-(toluene-4-sulfonyl)-piperidine-4-carboxylic acid (4-tert-butyl-phenyl)-amide] was 200 nM.
The same measure for `CN(C(=O)C1(O)CCN(S(=O)(=O)CC(C)(C)C)CC1)c1ccc(OC(F)(F)F)cc1` [Example 65, 1-(2,2-Dimethyl-propane-1-sulfonyl)-4-hydroxy-piperidine-4-carboxylic acid methyl-(4-trifluoromethoxy-phenyl)-amide]: 490 nM.
Take `CC(C)c1ccc(NC(=O)C2(N)CCN(Cc3ccccc3C(F)(F)F)CC2)cc1` [Example 114, 4-Amino-1-(2-trifluoromethyl-benzyl)-piperidine-4-carboxylic acid (4-isopropyl-phenyl)-amide; hydrochloride]: the IC50 is 210 nM.
As for `CCc1ccc(NC(=O)C2(N)CCN(S(=O)(=O)CC3CCCCC3)CC2)cc1` [Example 144, 4-Amino-1-cyclohexylmethanesulfonyl-piperidine-4-carboxylic acid (4-ethyl-phenyl)-amide], the IC50 was determined as 140 nM.
`CC(C)c1ccc(NC(=O)C2(N)CCN(C(=O)OCc3ccccc3)CC2)cc1` [Example 82, 4-Amino-4-(4-isopropyl-phenylcarbamoyl)-piperidine-1-carboxylic acid benzyl ester; hydrochloride]: the IC50 was 320 nM.
Consider `CCCCc1ccc(NC(=O)C2(N)CCN(S(=O)(=O)c3ccccc3Cl)CC2)cc1` [Example 104, 4-Amino-1-(2-chloro-benzenesulfonyl)-piperidine-4-carboxylic acid (4-butyl-phenyl)-amide], for which the IC50 came out at 60 nM.
Turning to `CN(C(=O)C1(O)CCN(Cc2ccccc2F)CC1)c1ccc(OC(F)(F)F)cc1` [Example 67, 1-(2-Fluoro-benzyl)-4-hydroxy-piperidine-4-carboxylic acid methyl-(4-trifluoromethoxy-phenyl)-amide], the IC50 was 190 nM.
